This is an account of results in US9387206B2, “Therapeutic approaches for treating Alzheimer's disease” (PHARNEXT, priority 2009, dated 2016).

Assay [1] deals with rat primary cortical neurons. Put plainly: LDH release, human Aβ1-42 toxicity on rat primary cortical cells. It counts as cell-based. Conditions: 0.32 nM alone; Aβ1-42 2.5 μM. The protocol:
Primary rat cortical neurons are cultured as described previously.
Briefly, Aβ1-42 peptide was reconstituted in defined culture medium at 40 μM (mother solution) and was slowly shacked at +37° C. for 3 days in the dark for aggregation. The control medium was prepared in the same conditions.
After 10 days of neuron culture, the drug was solved in culture medium (+0.1% DMSO) and then pre-incubated with neurons for 1 hour before the Aβ1-42 application (in a final volume per culture well of 100 μl). […] Cortical neurons were intoxicated for 24 hours. Three separate cultures were performed per condition, 6 wells per condition.
Estradiol-β at 100 and 150 nM were used as a reference test compound and BDNF at 50 ng/ml was used as a positive control. Three separate cultures were performed per condition, […].
Estradiol-β and BDNF were solved in culture medium and pre-incubated for 1 h before the aggregated amyloid-β1-42 application.
Lactate Dehydrogenase (LDH) Activity Assay
This colorimetric assay for the quantification of cell toxicity is based on the measurement of lactate dehydrogenase (LDH) activity released from the cytosol of dying cells into the supernatant.
All values are expressed as mean±s.e.mean of the 3 cultures (n=6 per condition). Statistical analyses were done on the different conditions (ANOVA followed by the Dunnett's test when it was allowed, Statview software version 5.0).
(LDH in the medium is a marker of cell lysis.)

For assay [2], the system named is rat primary cortical neurons. The experiment in a line: Neurite outgrowth in beta-amyloid (Aβ25-35) intoxicated rat primary cortical neuron culture. It counts as cell-based. Conditions: Aβ25-35 20 μM, 2 days; drug added 1 hour before.
For assay [3], the system named is NGF-differentiated PC12 cells. The experiment in a line: MTT viability of NGF-differentiated PC12 after Aβ25-35 intoxication. It counts as cell-based, rat. Conditions: Aβ25-35 10 μM, 24 hours, drug added 1 hour before. The method, then: PC12 (Pheochromocytoma Rat, ATCC ref: CRL-1721) cells from [NT] CRL-1721) were rapidly thawed in 37° C. water. The supernatant was immediately put in 9 ml of a PC12 proliferation medium containing Dulbecco's modified Eagle's medium DMEM-F12 (Pan Biotech ref: P04-41450) with 15% heat-inactivated horse serum (Invitrogen ref: 16050-130), 2.5% of fetal bovine serum (FBS; Invitrogen ref: 16000-036), 1% of Penicillin 10,000 U/ml and Streptomycin 10 mg/ml (PS; Pan Biotech ref: P06-07100) and 1% of L-glutamine 200 mM (Pan Biotech ref: P04-80100). Cells were centrifuged (800 rounds/min, 4° C. for 5 min) and added in 5 ml PC12 proliferation medium, viable cells were counted with a Malassez cell using the […] exclusion test (Sigma). Then the cells were seeded at 3.10^4 cells per cm^2 in PC12 proliferation medium in 75 cm^2 plastic flasks (Greiner Ref: 658175) precoated with poly-L-lysine (10 μg/ml, Sigma Ref: P2636). Medium was changed every other day. After 3 days of culture, when cells reached 80% of confluence, they were washed in HBSS without calcium and magnesium (Pan Biotech Ref: […] P10-023100). The enzymatic reaction was stopped with PC12 proliferation medium added by 0.5 mg/ml of DNAse 1 grade 2 (Pan Biotech Ref: 760-37780100). […]

Assay [4] has as its system rat primary cortical neurons. The experiment in a line: LDH release in Aβ25-35 intoxicated rat primary cortical neuron culture. Conditions: Aβ25-35 20 μM, 2 days; drug added 1 hour before. It counts as cell-based. The method, then: Primary rat cortical neurons are cultured as described by Singer et al., 1999. Briefly pregnant female rats of 15 days gestation are killed by cervical dislocation (Rats Wistar; Janvier) and the foetuses removed from the uterus. The cortexes are removed and placed in ice-cold medium of Leibovitz (L15; Invitrogen) containing 1% of Penicillin-Streptomycin (PS; Invitrogen) and 1% of bovine serum albumin (BSA; Sigma). Cortexes are dissociated by trypsinisation for 20 min at 37° C. (Trypsin EDTA 1×; Invitrogen) diluted in PBS without calcium and magnesium. The reaction is stopped by the addition of Dulbecco's modified Eagle's medium (DMEM; Invitrogen) containing DNAase I grade II (0.1 mg/ml; Roche Diagnostics) and 10% of foetal calf serum (FCS; Invitrogen). Cells are then mechanically dissociated by 3 passages through a 10 ml pipette. Cells are then centrifuged at 180×g for 10 min at 10° C. […] Viable cells are counted in a Neubauer cytometer using the trypan blue exclusion test. Cells are seeded at a density of 30,00-cells/well in 96-well plates (wells are pre-coated with poly-L-lysine (10 μg/ml; […] After 6 days of culture, cells are incubated with drugs (5 concentrations). After 1 hour, cells are intoxicated by 20 μM of β-amyloid (25-35; Sigma) in defined medium without BDNF but together with drugs. Cortical neurons are intoxicated for 2 days. After 2 days of culture, the supernatant is collected and analyzed with the Cytotoxicity Detection Kit (LDH, Roche Applied Sciences). This colorimetric assay for the quantification of cell death is based on the measurement of lactate dehydrogenase (LDH) activity released from the cytosol of damaged cells into the supernatant. The optic density (DO) is assessed by spectrophotometer at 492 nm wavelength by a multiscan apparatus (Thermo, Ref Ascent). […] Two days after this incubation, LDH release in the culture medium is quantified, reflecting the level of cell death.

Turning to `CC(=O)NCCCS(=O)(=O)O` [Acamprosate], the “Effect on Aβ1-42 intoxication, LDH release, drug alone” value in assay [1] is on record as “no significant effect”. Also, the “Prevention of Aβ25-35 intoxication, neurite outgrowth (neurite length)” value in assay [2] is given as “significantly prevented”.

For `CCCNC(C)C(=O)Nc1ccccc1C` (stereo not drawn) [Prilocain, Prilocaine], the “Prevention of Aβ25-35 intoxication, cell viability (MTT)” value is recorded as “significantly prevented” in assay [3] and “strong neuroprotective effect” in assay [3] (listed as prilocaine).

For the compound `NS(=O)(=O)Cc1noc2ccccc12` [Zonisamide], in assay [2], the “Prevention of Aβ25-35 intoxication, neurite outgrowth (neurite length)” value is “significantly prevented”. Moreover, the “Prevention of Aβ25-35 intoxication, LDH release” value in assay [4] is on record as “significantly prevented”.
